Test results published in ChEMBL document CHEMBL1144218, “Synthesis and biological activity of anticoccidial agents: 5,6-diarylimidazo[2,1-b][1,3]thiazoles” (Bioorg Med Chem Lett, 2008).

How the values were obtained:
[1] = Inhibition of Eimeria tenella PKG
Eimeria tenella [2] = test: Anticoccidial activity against Eimeria tenella infected in poultry bird assessed as reduction of […] burden at 50 ppm, po after 7 days; assay type: functional; set-up: scale not given: the % may be the effect or the level left
Eimeria acervulina [3] = test: Anticoccidial activity against Eimeria acervulina infected in poultry bird assessed as reduction of […] burden at 50 ppm, po after 7 days; assay type: functional; set-up: scale not given: the % may be the effect or the level left
Eimeria mitis [4] = test: Anticoccidial activity against Eimeria mitis infected in poultry bird assessed as reduction of […] burden at 50 ppm, po after 7 days; assay type: functional; set-up: scale not given: the % may be the effect or the level left
Eimeria maxima [5] = test: Anticoccidial activity against Eimeria maxima infected in poultry bird assessed as reduction of […] burden at 50 ppm, po after 7 days; assay type: functional; set-up: scale not given: the % may be the effect or the level left
Eimeria acervulina [6] = test: Anticoccidial activity against Eimeria acervulina infected in poultry bird assessed as reduction of […] burden at 25 ppm, po after 7 days; assay type: functional; set-up: scale not given: the % may be the effect or the level left
Eimeria tenella [7] = test: Anticoccidial activity against Eimeria tenella infected in poultry bird assessed as reduction of […] burden at 25 ppm, po after 7 days; assay type: functional; set-up: scale not given: the % may be the effect or the level left
Eimeria maxima [8] = test: Anticoccidial activity against Eimeria maxima infected in poultry bird assessed as reduction of […] burden at 25 ppm, po after 7 days; assay type: functional; set-up: scale not given: the % may be the effect or the level left
Eimeria mitis [9] = test: Anticoccidial activity against Eimeria mitis infected in poultry bird assessed as reduction of […] burden at 25 ppm, po after 7 days; assay type: functional; set-up: scale not given: the % may be the effect or the level left
Eimeria tenella [10] = test: Anticoccidial activity against Eimeria tenella infected in poultry bird assessed as reduction of […] burden at 12.5 ppm, po after 7 days; assay type: functional; set-up: scale not given: the % may be the effect or the level left
Eimeria acervulina [11] = test: Anticoccidial activity against Eimeria acervulina infected in poultry bird assessed as reduction of […] burden at 12.5 ppm, po after 7 days; assay type: functional; set-up: scale not given: the % may be the effect or the level left
Eimeria maxima [12] = test: Anticoccidial activity against Eimeria maxima infected in poultry bird assessed as reduction of […] burden at 12.5 ppm, po after 7 days; assay type: functional; set-up: scale not given: the % may be the effect or the level left
Eimeria mitis [13] = test: Anticoccidial activity against Eimeria mitis infected in poultry bird assessed as reduction of […] burden at 12.5 ppm, po after 7 days; assay type: functional; set-up: scale not given: the % may be the effect or the level left
Eimeria tenella [14] = test: Anticoccidial activity against Eimeria tenella infected in poultry bird assessed as reduction of […] burden at 6.25 ppm, po after 7 days; assay type: functional; set-up: scale not given: the % may be the effect or the level left
Eimeria acervulina [15] = test: Anticoccidial activity against Eimeria acervulina infected in poultry bird assessed as reduction of […] burden at 6.25 ppm, po after 7 days; assay type: functional; set-up: scale not given: the % may be the effect or the level left
Eimeria maxima [16] = test: Anticoccidial activity against Eimeria maxima infected in poultry bird assessed as reduction of […] burden at 6.25 ppm, po after 7 days; assay type: functional; set-up: scale not given: the % may be the effect or the level left
Eimeria mitis [17] = test: Anticoccidial activity against Eimeria mitis infected in poultry bird assessed as reduction of […] burden at 6.25 ppm, po after 7 days; assay type: functional; set-up: scale not given: the % may be the effect or the level left

| IC50 [1] | SMILES | Activity (Eimeria tenella [2]) | Activity (Eimeria acervulina [3]) | Activity (Eimeria mitis [4]) | Activity (Eimeria maxima [5]) | other results |
| --- | --- | --- | --- | --- | --- | --- |
| > 100 nM | Cc1c(CN2CCN(C)CC2)sc2nc(-c3ccc(F)cc3)c(-c3ccncc3)n12 | – | – | – | – | – |
| 10.1 nM | CN(C)CCc1cn2c(-c3ccncc3)c(-c3ccc(F)cc3)nc2s1 | 50% | 50% | 99% | <50% | – |
| 0.9 nM | CN(C)Cc1cn2c(-c3ccnc(N)n3)c(-c3ccc(F)cc3)nc2s1 | 99% | 100% | 50% | <50% | – |
| 100 nM | CN1CCN(C(=O)c2cn3c(-c4ccncc4)c(-c4ccc(F)cc4)nc3s2)CC1 | – | – | – | – | – |
| 0.7 nM | CN1CCN(Cc2cn3c(-c4ccncc4)c(-c4ccc(F)cc4)nc3s2)CC1 | 99% | 100% | 80% | <50% | – |
| 1.04 nM | CN1CCN(Cc2cn3c(-c4ccncn4)c(-c4ccc(F)cc4)nc3s2)CC1 | 100% | 99% | 100% | 100% | – |
| 22 nM | CN(C)Cc1cn2c(-c3ccncc3)c(-c3ccc(F)cc3)nc2s1 | 80% | 50% | <50% | <50% | – |
| 2.5 nM | CN1CCN(CCc2cn3c(-c4ccncc4)c(-c4ccc(F)cc4)nc3s2)CC1 | 99% | 80% | <50% | 50% | – |
| 0.08 nM | CN1CCN(Cc2cn3c(-c4ccnc(N)n4)c(-c4ccc(F)cc4)nc3s2)CC1 | 100% | 100% | 100% | 100% | Activity (Eimeria acervulina [6]): 100%; Activity (Eimeria tenella [7]): 100%; Activity (Eimeria maxima [8]): 100%; Activity (Eimeria mitis [9]): 100%; Activity (Eimeria tenella [10]): 100%; Activity (Eimeria acervulina [11]): 100%; Activity (Eimeria maxima [12]): 100%; Activity (Eimeria mitis [13]): <50%; Activity (Eimeria tenella [14]): 100%; Activity (Eimeria acervulina [15]): 100%; Activity (Eimeria maxima [16]): 100%; Activity (Eimeria mitis [17]): <50% |
